Columns and labels:
barnyardgrass [1] = assay: Test B pre-/postemergence herbicide test; assay type: in vivo, Echinochloa crus-galli; conditions: for Barnyardgrass plant response rating (0 to 100 scale) / Plant response rating, Barnyardgrass: 0 = no effect, 100 = complete control, preemergence; for Plant response rating, Barnyardgrass / Barnyardgrass plant response rating: visual rating; for Barnyardgrass plant response rating: postemergence, scale 0 (no effect) to 100 (complete control)
Outline: (§1)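 Visual rating, 0 (no effect) to 100 (complete control), versus untreated controls after 13–15 d in greenhouse. Pre- and postemergence applications (postemergence plants 2–18 cm, 1–4 leaves); flooded paddy arm at 2-leaf stage. Compounds in non-phytotoxic solvent plus surfactant.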

wild oat = assay: Test B postemergence herbicide test; assay type: in vivo, Avena fatua; conditions: postemergence, visual rating, scale 0 (no effect) to 100 (complete control)
Outline: (§2)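 Formulated test chemicals went onto postemergence plants measuring 2 to 18 cm, at one to four leaves. For the paddy assay, species had reached two leaves. Scoring took place 13–15 days later by eye, relative to untreated plants, using 0 for no effect up to 100 for full control.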

morningglory = assay: Test B pre-/postemergence herbicide test; assay type: in vivo, Ipomoea coccinea; conditions: for Morningglory plant response rating (0 to 100 scale) / Plant response rating, Morningglory: 0 = no effect, 100 = complete control, preemergence; for Plant response rating, Morningglory / Morningglory plant response rating: visual rating; for Morningglory plant response rating: postemergence, scale 0 (no effect) to 100 (complete control)
Outline: as §1

blackgrass = assay: Test B postemergence herbicide test; assay type: in vivo, Alopecurus myosuroides; conditions: postemergence, visual rating, scale 0 (no effect) to 100 (complete control)
Outline: (§3)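 Visual ratings, 0 (no effect) to 100 (complete control), made versus controls after 13–15 d greenhouse. Paddy plants treated at 2-leaf stage; postemergence plants at 1- to 4-leaf stage, 2–18 cm tall.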

large crabgrass = assay: Test B pre-/postemergence herbicide test; assay type: in vivo, Digitaria sanguinalis; conditions: for Crabgrass, Large plant response rating (0 to 100 scale) / Plant response rating, Crabgrass, Large: 0 = no effect, 100 = complete control, preemergence; for Plant response rating, Crabgrass, Large / Crabgrass, Large plant response rating: visual rating; for Crabgrass, Large plant response rating: postemergence, scale 0 (no effect) to 100 (complete control)
Outline: (§4)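 Herbicidal effect was judged by eye on a 0–100 scale after plants stood 13 to 15 days in the greenhouse following pre- or postemergence treatment with surfactant-containing formulations.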

wheat = assay: Test B postemergence herbicide test; assay type: in vivo, Triticum aestivum; parameters: key to Wheat plant response rating: 0 = no effect, 100 = complete control; conditions: postemergence, visual rating, scale 0 (no effect) to 100 (complete control)
Outline: as §2

cocklebur = assay: Test B pre-/postemergence herbicide test; assay type: in vivo, Xanthium strumarium; conditions: for Cocklebur plant response rating (0 to 100 scale) / Plant response rating, Cocklebur: 0 = no effect, 100 = complete control, preemergence; for Plant response rating, Cocklebur / Cocklebur plant response rating: visual rating; for Cocklebur plant response rating: postemergence, scale 0 (no effect) to 100 (complete control)
Outline: as §1

corn = assay: Test B pre-/postemergence herbicide test; assay type: in vivo, Zea mays; conditions: for Corn plant response rating (0 to 100 scale) / Plant response rating, Corn: 0 = no effect, 100 = complete control, preemergence; for Plant response rating, Corn / Corn plant response rating: visual rating; for Corn plant response rating: postemergence, scale 0 (no effect) to 100 (complete control)
Outline: as §4

giant foxtail = assay: Test B pre-/postemergence herbicide test; assay type: in vivo, Setaria faberi; conditions: for Foxtail, Giant plant response rating (0 to 100 scale) / Plant response rating, Foxtail, Giant: 0 = no effect, 100 = complete control, preemergence; for Plant response rating, Foxtail, Giant / Foxtail, Giant plant response rating: visual rating; for Foxtail, Giant plant response rating: postemergence, scale 0 (no effect) to 100 (complete control)
Outline: as §4

[2] = test system: small flower umbrella sedge; assay: Test B flooded paddy test; assay type: in vivo, Cyperus difformis; conditions: 1000 g ai/ha, visual rating, scale 0 to 100 (0 no effect, 100 complete control), 13 to 15 days
Outline: as §3

velvetleaf = assay: Test B pre-/postemergence herbicide test; assay type: in vivo, Abutilon theophrasti; conditions: for Velvetleaf plant response rating (0 to 100 scale) / Plant response rating, Velvetleaf: 0 = no effect, 100 = complete control, preemergence; for Plant response rating, Velvetleaf / Velvetleaf plant response rating: visual rating; for Velvetleaf plant response rating: postemergence, scale 0 (no effect) to 100 (complete control)
Outline: as §4

rice = assay: Test B flooded paddy test; assay type: in vivo, Oryza sativa; conditions: 1000 g ai/ha, visual rating, scale 0 to 100 (0 no effect, 100 complete control), 13 to 15 days
Outline: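 Treated at 2-leaf (paddy) or 1–4-leaf, 2–18 cm (postemergence); greenhouse 13–15 d; visual score vs control, 0 none to 100 complete control; dash = not tested.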

pigweed = assay: Test B pre-/postemergence herbicide test; assay type: in vivo, Amaranthus retroflexus; conditions: for Pigweed plant response rating (0 to 100 scale) / Plant response rating, Pigweed: 0 = no effect, 100 = complete control, preemergence; for Plant response rating, Pigweed / Pigweed plant response rating: visual rating; for Pigweed plant response rating: postemergence, scale 0 (no effect) to 100 (complete control)
Outline: as §4

Surinam grass = assay: Test B pre-/postemergence herbicide test; assay type: in vivo, Urochloa decumbens; conditions: for Surinam Grass plant response rating (0 to 100 scale) / Plant response rating, Surinam Grass: 0 = no effect, 100 = complete control, preemergence; for Plant response rating, Surinam Grass / Surinam Grass plant response rating: visual rating; for Surinam Grass plant response rating: postemergence, scale 0 (no effect) to 100 (complete control)
Outline: as §4

barnyardgrass [3] = assay: Test B flooded paddy test; assay type: in vivo, Echinochloa crus-galli; conditions: 1000 g ai/ha, visual rating, scale 0 to 100 (0 no effect, 100 complete control), 13 to 15 days
Outline: as §3

ducksalad = assay: Test B flooded paddy test; assay type: in vivo, Heteranthera limosa; conditions: 1000 g ai/ha, visual rating, scale 0 to 100 (0 no effect, 100 complete control), 13 to 15 days
Outline: as §3

Structure (SMILES): CCNC(=O)c1cccc(NC(=O)c2sc(C(C)(C)C)nc2CC)n1 [Compound 213]
- Barnyardgrass plant response rating (0 to 100 scale) (barnyardgrass [1]; 125 g ai/ha): 10
- Plant response rating, Barnyardgrass (barnyardgrass [1]; 500 g ai/ha): 80
- Barnyardgrass plant response rating (barnyardgrass [1]; 125 g ai/ha): 0
- Barnyardgrass plant response rating (barnyardgrass [1]; 500 g ai/ha): 50
- Oat, Wild plant response rating (wild oat; 125 g ai/ha): 10
- Oat, Wild plant response rating (wild oat; 500 g ai/ha): 20
- Morningglory plant response rating (0 to 100 scale) (morningglory; 125 g ai/ha): 0
- Plant response rating, Morningglory (morningglory; 500 g ai/ha): 20
- Morningglory plant response rating (morningglory; 125 g ai/ha): 10
- Morningglory plant response rating (morningglory; 500 g ai/ha): 30
- Blackgrass plant response rating (blackgrass; 125 g ai/ha): 20
- Blackgrass plant response rating (blackgrass; 500 g ai/ha): 40
- Crabgrass, Large plant response rating (0 to 100 scale) (large crabgrass; 125 g ai/ha): 10
- Plant response rating, Crabgrass, Large (large crabgrass; 500 g ai/ha): 70
- Crabgrass, Large plant response rating (large crabgrass; 125 g ai/ha): 0
- Crabgrass, Large plant response rating (large crabgrass; 500 g ai/ha): 30
- Wheat plant response rating (wheat; 125 g ai/ha): 0
- Wheat plant response rating (wheat; 500 g ai/ha): 30
- Cocklebur plant response rating (0 to 100 scale) (cocklebur; 125 g ai/ha): 0
- Plant response rating, Cocklebur (cocklebur; 500 g ai/ha): 0
- Cocklebur plant response rating (cocklebur; 125 g ai/ha): 0
- Cocklebur plant response rating (cocklebur; 500 g ai/ha): 70
- Corn plant response rating (0 to 100 scale) (corn; 125 g ai/ha): 0
- Plant response rating, Corn (corn; 500 g ai/ha): 10
- Corn plant response rating (corn; 125 g ai/ha): 0
- Corn plant response rating (corn; 500 g ai/ha): 20
- Foxtail, Giant plant response rating (0 to 100 scale) (giant foxtail; 125 g ai/ha): 20
- Plant response rating, Foxtail, Giant (giant foxtail; 500 g ai/ha): 90
- Foxtail, Giant plant response rating (giant foxtail; 125 g ai/ha): 0
- Foxtail, Giant plant response rating (giant foxtail; 500 g ai/ha): 30
- Sedge, Umbrella plant response rating [2]: 80
- Velvetleaf plant response rating (0 to 100 scale) (velvetleaf; 125 g ai/ha): 0
- Plant response rating, Velvetleaf (velvetleaf; 500 g ai/ha): 80
- Velvetleaf plant response rating (velvetleaf; 125 g ai/ha): 0
- Velvetleaf plant response rating (velvetleaf; 500 g ai/ha): 60
- Rice plant response rating (rice): 40
- Pigweed plant response rating (0 to 100 scale) (pigweed; 125 g ai/ha): 30
- Plant response rating, Pigweed (pigweed; 500 g ai/ha): 100
- Pigweed plant response rating (pigweed; 125 g ai/ha): 0
- Pigweed plant response rating (pigweed; 500 g ai/ha): 20
- Surinam Grass plant response rating (0 to 100 scale) (Surinam grass; 125 g ai/ha): 0
- Plant response rating, Surinam Grass (Surinam grass; 500 g ai/ha): 40
- Surinam Grass plant response rating (Surinam grass; 125 g ai/ha): 10
- Surinam Grass plant response rating (Surinam grass; 500 g ai/ha): 20
- Barnyardgrass plant response rating (barnyardgrass [3]): 60
- Ducksalad plant response rating (ducksalad): 70

Structure (SMILES): CCc1nn(C(C)(C)C)cc1C(=O)Nc1cc(C(=O)N(CC)CC)ccc1F [Compound 223]
- Barnyardgrass plant response rating (0 to 100 scale) (barnyardgrass [1]; 125 g ai/ha): 20
- Plant response rating, Barnyardgrass (barnyardgrass [1]; 500 g ai/ha): 80
- Barnyardgrass plant response rating (barnyardgrass [1]; 125 g ai/ha): 10
- Barnyardgrass plant response rating (barnyardgrass [1]; 500 g ai/ha): 20
- Oat, Wild plant response rating (wild oat; 125 g ai/ha): 0
- Oat, Wild plant response rating (wild oat; 500 g ai/ha): 30
- Morningglory plant response rating (0 to 100 scale) (morningglory; 125 g ai/ha): 10
- Plant response rating, Morningglory (morningglory; 500 g ai/ha): 30
- Morningglory plant response rating (morningglory; 125 g ai/ha): 40
- Morningglory plant response rating (morningglory; 500 g ai/ha): 80
- Blackgrass plant response rating (blackgrass; 125 g ai/ha): 0
- Blackgrass plant response rating (blackgrass; 500 g ai/ha): 0
- Crabgrass, Large plant response rating (0 to 100 scale) (large crabgrass; 125 g ai/ha): 50
- Plant response rating, Crabgrass, Large (large crabgrass; 500 g ai/ha): 100
- Crabgrass, Large plant response rating (large crabgrass; 125 g ai/ha): 10
- Crabgrass, Large plant response rating (large crabgrass; 500 g ai/ha): 20
- Wheat plant response rating (wheat; 125 g ai/ha): 0
- Wheat plant response rating (wheat; 500 g ai/ha): 0
- Cocklebur plant response rating (0 to 100 scale) (cocklebur; 125 g ai/ha): 0
- Plant response rating, Cocklebur (cocklebur; 500 g ai/ha): 20
- Cocklebur plant response rating (cocklebur; 125 g ai/ha): 10
- Cocklebur plant response rating (cocklebur; 500 g ai/ha): 30
- Corn plant response rating (0 to 100 scale) (corn; 125 g ai/ha): 10
- Plant response rating, Corn (corn; 500 g ai/ha): 80
- Corn plant response rating (corn; 125 g ai/ha): 10
- Corn plant response rating (corn; 500 g ai/ha): 20
- Foxtail, Giant plant response rating (0 to 100 scale) (giant foxtail; 125 g ai/ha): 10
- Plant response rating, Foxtail, Giant (giant foxtail; 500 g ai/ha): 80
- Foxtail, Giant plant response rating (giant foxtail; 125 g ai/ha): 10
- Foxtail, Giant plant response rating (giant foxtail; 500 g ai/ha): 20
- Sedge, Umbrella plant response rating [2]: 80
- Velvetleaf plant response rating (0 to 100 scale) (velvetleaf; 125 g ai/ha): 30
- Plant response rating, Velvetleaf (velvetleaf; 500 g ai/ha): 100
- Velvetleaf plant response rating (velvetleaf; 125 g ai/ha): 20
- Velvetleaf plant response rating (velvetleaf; 500 g ai/ha): 20
- Rice plant response rating (rice): 70
- Pigweed plant response rating (0 to 100 scale) (pigweed; 125 g ai/ha): 90
- Plant response rating, Pigweed (pigweed; 500 g ai/ha): 100
- Pigweed plant response rating (pigweed; 125 g ai/ha): 60
- Pigweed plant response rating (pigweed; 500 g ai/ha): 70
- Surinam Grass plant response rating (0 to 100 scale) (Surinam grass; 125 g ai/ha): 20
- Plant response rating, Surinam Grass (Surinam grass; 500 g ai/ha): 90
- Surinam Grass plant response rating (Surinam grass; 125 g ai/ha): 10
- Surinam Grass plant response rating (Surinam grass; 500 g ai/ha): 10
- Barnyardgrass plant response rating (barnyardgrass [3]): 40
- Ducksalad plant response rating (ducksalad): 90

Reference: patent US20060069132A1, “Azolecarboxamide herbicides” (priority 2004, published 2006)
